Experimental data: US20240099997A1, “METALLOENZYME MODULATORS” (Regents of the University of Minnesota, priority 2022, published 2024)

Molecular target: T1, horse heart myoglobin (Mb) (Equus caballus, UniProt P68082)
T1 construct: Lyophilized horse heart Mb, human Hb, equine heart cytochrome c were in their ferric form when dissolved in buffer; purchased Sigma M1882; host or cells: horse heart
Experiment: UV-Vis spectrophotometric ligand affinity study, myoglobin
Conditions: ferric horse heart Mb, PBS pH 7.4, Soret shift 409 to 422 nm; read-out: Kd (binding affinity to ferric Mb heme)
Method: UV-Vis spectrophotometric ligand affinity studies for ferric and ferrous-oxy heme proteins were performed using a Cary4000 UV-Vis spectrophotometer. These studies were performed in an aerobic environment. Lyophilized horse heart Mb, human Hb, equine heart cytochrome c were in their ferric form when dissolved in buffer. DosS GAF-A was purified in its ferric form. Ferrous-oxy forms of Mb and hemoglobin (Hb) were prepared by addition of a small aliquot of sodium dithionite to the proteins (in air) and running the protein through PD-10 columns twice to remove excess dithionite/other products. […] The protein concentration was set to ˜1 μM to obtain a desirable absorbance reading at the Soret peak region. […] For those fragments with some intrinsic absorbance in the aforementioned region, a second titration was performed with the same conditions, but without protein. […]
UV-Vis spectrophotometric ligand affinity studies for ferrous heme proteins were performed using a Cary 60 UV-Vis spectrophotometer. […] The sum of the maximal and minimal differences in absorbance was plotted for each concentration point for each ligand. […]
where Y is the observed change in absorbance, A is the maximum change in absorbance, Kd is the dissociation constant of the ligand, L is the ligand concentration and P is the protein concentration. The maximal change in absorbance, A, is obtained through nonlinear regression. […]

T1 sequence (P68082 whole entry): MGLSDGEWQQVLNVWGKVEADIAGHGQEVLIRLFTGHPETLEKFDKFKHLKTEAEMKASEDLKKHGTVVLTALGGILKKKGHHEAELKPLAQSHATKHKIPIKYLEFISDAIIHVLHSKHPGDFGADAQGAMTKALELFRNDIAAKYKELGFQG

Work on `N#CN1CCSCC1` [HT-N1, thiomorpholine N-carbonitrile] yielded a Kd of 2570 ± 328 µM.
